Laboratory results taken from PubChem BioAssay AID2060621 (Molecular Pharmacology Branch, DTP, NCI, 2025).

Tested on: 324938-238-R-J1-PDC complex spheroids viability
Assay: Anticancer human tumor 324938-238-R-J1-PDC patient-derived bladder carcinoma cell line growth inhibition [CLK]
Conditions: for IC50: curve of first compound; for viability, T/C: stronger effect = lower value
In short: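 Multi-cell-type spheroids combined patient-derived tumor cells with HUVEC endothelial cells and human mesenchymal stem cells. Paired agents were dosed in half-log steps down from about clinical Cmax, or from 10 microM where Cmax was unknown.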

[1] = second compound 0.0316 µM, first compound 0.0316 µM
[2] = second compound 0.0316 µM, first compound 0.1 µM
[3] = second compound 0.0316 µM, first compound 0.316 µM
[4] = second compound 0.0316 µM, first compound 1 µM
[5] = second compound 0.0316 µM, first compound 3.16 µM
[6] = second compound 0.0316 µM, first compound 10 µM
[7] = second compound 0.1 µM, first compound 0.0316 µM
[8] = second compound 0.1 µM, first compound 0.1 µM
[9] = second compound 0.1 µM, first compound 0.316 µM
[10] = second compound 0.1 µM, first compound 1 µM
[11] = second compound 0.1 µM, first compound 3.16 µM
[12] = second compound 0.1 µM, first compound 10 µM
[13] = second compound 0.316 µM, first compound 0.0316 µM
[14] = second compound 0.316 µM, first compound 0.1 µM
[15] = second compound 0.316 µM, first compound 0.316 µM
[16] = second compound 0.316 µM, first compound 1 µM
[17] = second compound 0.316 µM, first compound 3.16 µM
[18] = second compound 0.316 µM, first compound 10 µM
[19] = second compound 1 µM, first compound 0.0316 µM
[20] = second compound 1 µM, first compound 0.1 µM
[21] = second compound 1 µM, first compound 0.316 µM
[22] = second compound 1 µM, first compound 1 µM
[23] = second compound 1 µM, first compound 3.16 µM
[24] = second compound 1 µM, first compound 10 µM
[25] = second compound 3.16 µM, first compound 0.0316 µM
[26] = second compound 3.16 µM, first compound 0.1 µM
[27] = second compound 3.16 µM, first compound 0.316 µM
[28] = second compound 3.16 µM, first compound 1 µM
[29] = second compound 3.16 µM, first compound 3.16 µM
[30] = second compound 3.16 µM, first compound 10 µM
[31] = second compound 10 µM, first compound 0.0316 µM
[32] = second compound 10 µM, first compound 0.1 µM
[33] = second compound 10 µM, first compound 0.316 µM
[34] = second compound 10 µM, first compound 1 µM
[35] = second compound 10 µM, first compound 3.16 µM
[36] = second compound 10 µM, first compound 10 µM
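Further: viability read after seven days of drug exposure.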
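Wherever viability, T/C is given: 100% = DMSO vehicle control wells.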

CC(=O)O[C@H]1C(=O)[C@@]2(C)[C@H]([C@H](OC(=O)c3ccccc3)[C@]3(O)C[C@H](OC(=O)[C@H](O)[C@@H](NC(=O)c4ccccc4)c4ccccc4)C(C)=C1C3(C)C)[C@]1(OC(C)=O)CO[C@@H]1C[C@@H]2O + CN1CCN(c2cc(C(=O)Nc3cc4cc(-c5cnn(C)c5)ccc4cn3)ccn2)CC1
IC50 (second compound 0.0316 µM): < 31.6 nM
IC50 (second compound 0.1 µM): < 31.6 nM
IC50 (second compound 0.316 µM): < 31.6 nM
IC50 (second compound 1 µM): < 31.6 nM
IC50 (second compound 3.16 µM): < 31.6 nM
IC50 (second compound 10 µM): < 31.6 nM
viability, T/C [1]: 14.2%
viability, T/C [2]: 13.8%
viability, T/C [3]: 14.7%
viability, T/C [4]: 12.9%
viability, T/C [5]: 14.6%
viability, T/C [6]: 15.7%
viability, T/C [7]: 13.7%
viability, T/C [8]: 14%
viability, T/C [9]: 13.6%
viability, T/C [10]: 13.8%
viability, T/C [11]: 14.5%
viability, T/C [12]: 16.9%
viability, T/C [13]: 16.9%
viability, T/C [14]: 15.6%
viability, T/C [15]: 15.2%
viability, T/C [16]: 16.9%
viability, T/C [17]: 15%
viability, T/C [18]: 18%
viability, T/C [19]: 0.92%
viability, T/C [20]: 0.96%
viability, T/C [21]: 0.69%
viability, T/C [22]: 1.04%
viability, T/C [23]: 0.73%
viability, T/C [24]: 0.69%
viability, T/C [25]: 0.17%
viability, T/C [26]: 0.22%
viability, T/C [27]: 0.22%
viability, T/C [28]: 0.13%
viability, T/C [29]: 0.21%
viability, T/C [30]: 0.18%
viability, T/C [31]: 0.13%
viability, T/C [32]: 0.16%
viability, T/C [33]: 0.51%
viability, T/C [34]: 0.16%
viability, T/C [35]: 0.28%
viability, T/C [36]: 0.28%

CCc1c2c(nc3ccc(O)cc13)-c1cc3c(c(=O)n1C2)COC(=O)[C@]3(O)CC + CN1CCN(c2cc(C(=O)Nc3cc4cc(-c5cnn(C)c5)ccc4cn3)ccn2)CC1
IC50 (second compound 0.0316 µM): < 3.16 nM
IC50 (second compound 0.1 µM): < 3.16 nM
IC50 (second compound 0.316 µM): < 3.16 nM
IC50 (second compound 1 µM): < 3.16 nM
IC50 (second compound 3.16 µM): < 3.16 nM
IC50 (second compound 10 µM): < 3.16 nM
viability, T/C (second compound 0.0316 µM, first compound 0.00316 µM): 14.9%
viability, T/C (second compound 0.0316 µM, first compound 0.01 µM): 10.1%
viability, T/C [1]: 11.5%
viability, T/C [2]: 9.42%
viability, T/C [3]: 8.03%
viability, T/C [4]: 1.47%
viability, T/C (second compound 0.1 µM, first compound 0.00316 µM): 12.7%
viability, T/C (second compound 0.1 µM, first compound 0.01 µM): 10.3%
viability, T/C [7]: 8.87%
viability, T/C [8]: 8.12%
viability, T/C [9]: 6.95%
viability, T/C [10]: 1.21%
viability, T/C (second compound 0.316 µM, first compound 0.00316 µM): 10.5%
viability, T/C (second compound 0.316 µM, first compound 0.01 µM): 7.5%
viability, T/C [13]: 4.44%
viability, T/C [14]: 3.89%
viability, T/C [15]: 0.83%
viability, T/C [16]: 0.18%
viability, T/C (second compound 1 µM, first compound 0.00316 µM): 0.42%
viability, T/C (second compound 1 µM, first compound 0.01 µM): 0.28%
viability, T/C [19]: 0.24%
viability, T/C [20]: 0.06%
viability, T/C [21]: 0.09%
viability, T/C [22]: 0.38%
viability, T/C (second compound 3.16 µM, first compound 0.00316 µM): 0.16%
viability, T/C (second compound 3.16 µM, first compound 0.01 µM): 0.17%
viability, T/C [25]: 0.19%
viability, T/C [26]: 0.1%
viability, T/C [27]: 0.16%
viability, T/C [28]: 0.14%
viability, T/C (second compound 10 µM, first compound 0.00316 µM): 0.1%
viability, T/C (second compound 10 µM, first compound 0.01 µM): 0.11%
viability, T/C [31]: 0.17%
viability, T/C [32]: 0.11%
viability, T/C [33]: 0.16%
viability, T/C [34]: 0.16%

COc1cccc2c1C(=O)c1c(O)c3c(c(O)c1C2=O)CC(O)(C(=O)CO)CC3OC1CC(N)C(O)C(C)O1 (stereo unspecified) + CN1CCN(c2cc(C(=O)Nc3cc4cc(-c5cnn(C)c5)ccc4cn3)ccn2)CC1
IC50 (second compound 0.0316 µM): < 31.6 nM
IC50 (second compound 0.1 µM): < 31.6 nM
IC50 (second compound 0.316 µM): < 31.6 nM
IC50 (second compound 1 µM): < 31.6 nM
IC50 (second compound 3.16 µM): < 31.6 nM
IC50 (second compound 10 µM): < 31.6 nM
viability, T/C [1]: 19.4%
viability, T/C [2]: 14.4%
viability, T/C [3]: 8.3%
viability, T/C [4]: 0.88%
viability, T/C [5]: 0.09%
viability, T/C [6]: 0.14%
viability, T/C [7]: 16.9%
viability, T/C [8]: 16.5%
viability, T/C [9]: 8.06%
viability, T/C [10]: 0.56%
viability, T/C [11]: 0.09%
viability, T/C [12]: 0.68%
viability, T/C [13]: 17.8%
viability, T/C [14]: 16.2%
viability, T/C [15]: 4.21%
viability, T/C [16]: 0.29%
viability, T/C [17]: 0.07%
viability, T/C [18]: 0.12%
viability, T/C [19]: 0.37%
viability, T/C [20]: 0.2%
viability, T/C [21]: 0.1%
viability, T/C [22]: 0.09%
viability, T/C [23]: 0.35%
viability, T/C [24]: 0.44%
viability, T/C [25]: 0.12%
viability, T/C [26]: 0.28%
viability, T/C [27]: 0.17%
viability, T/C [28]: 0.06%
viability, T/C [29]: 0.22%
viability, T/C [30]: 0.3%
viability, T/C [31]: 0.09%
viability, T/C [32]: 0.18%
viability, T/C [33]: 0.26%
viability, T/C [34]: 0.1%
viability, T/C [35]: 0.15%
viability, T/C [36]: 0.48%
